Reference: US20250213644A1, “COMPOSITIONS AND METHODS FOR TREATMENT OF BONE-RELATED DISEASE OR DISORDER” (priority 2021, published 2025)

Key:
newly formed bone = settings: rats, after 6 to 8 weeks of treatment; cited from earlier work
OVX-induced bone loss = assay: Rescue of OVX-induced bone loss, μCT of femora; assay type: in vivo, mouse
[1] = test system: New-born mouse calvarial osteoblasts; assay: Osteoblast proliferation assay (cell counts), WT and CB2−/− mouse-derived cultures
CB2 = CB2 (Homo sapiens, UniProt P34972); settings: increasing concentrations of 5aa-OGP; CHO-CB2-derived membranes
CB2, sequence (P34972 whole entry): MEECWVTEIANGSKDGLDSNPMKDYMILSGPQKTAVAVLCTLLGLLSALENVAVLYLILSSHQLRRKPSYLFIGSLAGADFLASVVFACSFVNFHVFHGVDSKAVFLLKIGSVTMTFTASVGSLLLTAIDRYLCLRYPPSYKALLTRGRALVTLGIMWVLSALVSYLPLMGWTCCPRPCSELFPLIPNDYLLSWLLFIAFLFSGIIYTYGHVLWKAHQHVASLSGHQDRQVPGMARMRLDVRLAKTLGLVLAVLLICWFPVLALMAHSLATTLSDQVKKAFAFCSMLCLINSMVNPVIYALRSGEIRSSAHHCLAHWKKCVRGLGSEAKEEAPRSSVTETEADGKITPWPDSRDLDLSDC

human osteoblasts = assay: Human osteoblast proliferation assay with or without SR144528; settings: with CB2-selective antagonist SR144528
age-related bone loss = assay: Prevention of age-related bone loss in male mice, μCT; assay type: in vivo, mouse; settings: male mice treated from 3 to 6 months of age
[2] = test system: Ti particle-induced osteolysis; assay: Calvarial osteolysis model, Ti particle-induced osteolysis, μCT; assay type: in vivo, mouse; settings: fibrin membranes with Ti particles loaded with 10^−11M 5aa-OGP on mice calvaria; 4 weeks post-op
Excerpt: FIGS. 5A-5C show the effect of topically administered 5aa-OGP on Ti particle-induced osteolysis in vivo: Fibrin membranes including titanium particles derived from sand-blasted Ti implants, with 5aa-OGP (TiP+5aa-OGP) or with saline (TiP) were implanted onto mice calvaria. Membranes with no TiP were inserted in the control group. Mice were sacrificed 4 weeks post-op. and subjected to CT analysis. FIG. 5A—Pit Resorption Volume over total volume (PR.V/TV), FIG. 5B—Bone volume in the region of interest, chiefly representing the calvarial thickness), and FIG. 5C—Representative CT images of the calvaria. Data are expressed as mean±SD (n=4). *p<0.05 vs. Titanium.
Calvarial Osteolysis Model. To test the direct effect of Ti particles on inflammation-induced osteolysis in vivo, a mouse calvaria model and μCT analysis specifically designed in our laboratory was used. […]
μCT analysis—All specimens were scanned and analyzed using a μCT system (CT 50, Scanco Medical AG, Switzerland). […]
A custom-made algorithm based on Image-Processing Language (IPL, Scanco Medical) was developed to isolate the resorption pits, defined as unmineralized pits that were […] deep on the bone surface. The measured resorption volume was limited to a […] depth because beyond that, the resorption pit was connected to the internal diploe. […]

[3] = WT OVX mice, 10 ng/day s.c. for 6 weeks
[4] = mouse-derived osteoblast cultures, 48-hour incubation

C=C(C)[C@@H]1CCC(C)=C[C@H]1c1c(O)cc(CCCCC)cc1O [CBD, Cannabidiol]
Quality and biomechanical properties (e.g. bone strength) of the newly formed bone (newly formed bone): enhanced

YGFGG (listed as Homo sp.) [5aa-OGP]
Any of the measured bone parameters (OVX-induced bone loss; OVX CB2−/− animals, 10 ng/day s.c. for 6 weeks): no effect | Cortical bone parameters (OVX-induced bone loss; [3]): did not affect | Trabecular number (Tb.N) (OVX-induced bone loss; [3]): significant increases | Trabecular thickness (Tb.Th) (OVX-induced bone loss; [3]): significant increases | Trabecular volumetric bone mineral density (vBMD) (OVX-induced bone loss; [3]): significant increases | Trabecular bone volume fraction (BV/TV), change vs. OVX, VEH-treated mice (OVX-induced bone loss; WT OVX mice, 10 ng/day s.c. once a day for 6 weeks, starting 6 weeks post-OVX, p=0.035): +45.9% | Osteoblastic proliferative activity ([1]; CB2−/−-derived murine osteoblasts (genetic ablation of CB2)): completely abrogated | Osteoblastic proliferative activity [1, 4]: nearly an identical dose response relationship | Displacement of tritiated CP55,940 (CB2): did not displace CP55,940 | Proliferative effect in human osteoblasts (human osteoblasts): abrogated | Trabecular connectivity density (age-related bone loss): significantly increased | Trabecular number (age-related bone loss): significantly increased | Trabecular thickness (age-related bone loss): significantly increased | Bone volume in the calvaria (region of interest) [2]: increased bone volume | Ti particle-induced osteolysis (Pit Resorption Volume over total volume, PR.V/TV) [2]: completely prevented this bone loss

CCCCCCC(C)(C)c1cc(OC)c(C2=C[C@H]3CC[C@]2(CO)C3(C)C)c(OC)c1 [HU-910, reference compound]
Osteoblastic proliferative activity [1, 4]: nearly an identical dose response relationship | Proliferative effect in human osteoblasts (human osteoblasts): abrogated
